How the values were obtained:
Assay in all cases: relative viability (nuclei count vs DMSO), 5 days (fraction); higher = more cells survive
Sorafenib + Decitabine = compound: CNC(=O)c1cc(Oc2ccc(NC(=O)Nc3ccc(Cl)c(C(F)(F)F)c3)cc2)ccn1 [Sorafenib] + Nc1ncn([C@H]2C[C@H](O)[C@@H](CO)O2)c(=O)n1 [Decitabine] (partner 2 µM)
Summary of the method: (§1)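 Relative viability is defined as nuclei in treated wells over nuclei in vehicle wells. Duplicate plates were run and medians reported. Lung cancer cell lines in 1536-well plates were dosed by pin tool one day after seeding, with one drug or with a fixed anchor-drug dose plus five library-drug doses (not always all listed) in √10 steps, and nuclei were counted after 5 days.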

Sorafenib + Alpelisib = compound: CNC(=O)c1cc(Oc2ccc(NC(=O)Nc3ccc(Cl)c(C(F)(F)F)c3)cc2)ccn1 [Sorafenib] + Cc1nc(NC(=O)N2CCC[C@H]2C(N)=O)sc1-c1ccnc(C(C)(C)C(F)(F)F)c1 [Alpelisib] (partner 2 µM)
Summary of the method: as §1

Sorafenib + Tozasertib = compound: CNC(=O)c1cc(Oc2ccc(NC(=O)Nc3ccc(Cl)c(C(F)(F)F)c3)cc2)ccn1 [Sorafenib] + Cc1cc(Nc2cc(N3CCN(C)CC3)nc(Sc3ccc(NC(=O)C4CC4)cc3)n2)n[nH]1 [Tozasertib] (partner 0.1 µM)
Summary of the method: as §1

Sorafenib + Bortezomib = compound: CNC(=O)c1cc(Oc2ccc(NC(=O)Nc3ccc(Cl)c(C(F)(F)F)c3)cc2)ccn1 [Sorafenib] + CC(C)C[C@H](NC(=O)[C@H](Cc1ccccc1)NC(=O)c1cnccn1)B(O)O [Bortezomib] (partner 0.002 µM)
Summary of the method: as §1

Sorafenib + Navitoclax = compound: CNC(=O)c1cc(Oc2ccc(NC(=O)Nc3ccc(Cl)c(C(F)(F)F)c3)cc2)ccn1 [Sorafenib] + CC1(C)CCC(c2ccc(Cl)cc2)=C(CN2CCN(c3ccc(C(=O)NS(=O)(=O)c4ccc(N[C@H](CCN5CCOCC5)CSc5ccccc5)c(S(=O)(=O)C(F)(F)F)c4)cc3)CC2)C1 [Navitoclax] (partner 0.5 µM)
Summary of the method: as §1

Cell Line	relative viability (Sorafenib + Decitabine; first compound 0.08 µM)	relative viability (Sorafenib + Decitabine; first compound 0.253 µM)	relative viability (Sorafenib + Decitabine; first compound 2.53 µM)	relative viability (Sorafenib + Decitabine; first compound 8 µM)	relative viability (Sorafenib + Alpelisib; first compound 0.08 µM)	relative viability (Sorafenib + Alpelisib; first compound 2.53 µM)	relative viability (Sorafenib + Alpelisib; first compound 8 µM)	relative viability (Sorafenib + Tozasertib; first compound 0.08 µM)	relative viability (Sorafenib + Tozasertib; first compound 0.253 µM)	relative viability (Sorafenib + Tozasertib; first compound 2.53 µM)	relative viability (Sorafenib + Tozasertib; first compound 8 µM)	relative viability (Sorafenib + Bortezomib; first compound 0.08 µM)	relative viability (Sorafenib + Bortezomib; first compound 0.253 µM)	relative viability (Sorafenib + Bortezomib; first compound 2.53 µM)	relative viability (Sorafenib + Navitoclax; first compound 0.08 µM)	relative viability (Sorafenib + Navitoclax; first compound 0.253 µM)	relative viability (Sorafenib + Navitoclax; first compound 2.53 µM)	relative viability (Sorafenib + Navitoclax; first compound 8 µM)	relative viability (Sorafenib + Alpelisib; first compound 0.253 µM)	relative viability (Sorafenib + Bortezomib; first compound 8 µM)
HCC-827	0.316	0.3	0.323	0.331	1.07	0.988	0.826	0.423	0.471	0.421	0.45	1.06	1.04	0.929	1.04	1.04	0.984	0.905	–	–
HOP-62	0.253	0.22	0.186	0.198	0.995	0.765	0.794	0.431	0.331	0.338	0.155	0.639	0.64	–	1.14	0.758	0.761	0.814	0.775	0.232
LC-2-ad	0.881	0.789	0.762	0.59	1.02	–	0.678	0.405	0.478	0.478	0.462	1.25	1.01	0.914	0.343	0.413	0.418	0.218	0.863	0.618
LCLC-97TM1	0.235	0.224	0.165	0.252	0.237	0.184	0.198	0.191	0.232	0.195	0.188	0.725	0.623	0.992	0.356	0.373	0.323	0.313	0.247	0.73
LCLC-103H	0.701	0.774	0.771	0.698	1.06	0.893	1.18	0.489	0.548	0.419	0.569	1.08	1.23	1.05	–	–	–	–	0.991	1.08
LK-2	0.329	0.235	0.236	0.182	1.06	0.89	0.647	0.17	0.226	0.17	0.153	–	–	–	0.904	0.793	0.819	0.477	–	–
NCI-H358	0.224	0.222	0.217	0.121	1.06	0.934	0.337	0.112	0.0906	0.0966	0.073	–	–	–	–	–	–	–	1.12	–
NCI-H522	0.645	0.686	0.657	0.648	–	–	–	0.626	0.596	0.588	0.523	–	–	–	–	–	–	–	–	–
NCI-H650	0.343	0.295	0.34	0.278	1.31	0.952	0.963	0.718	0.659	0.62	0.592	0.759	0.581	0.746	–	–	–	–	0.96	0.677
NCI-H661	0.57	0.503	0.531	0.356	0.949	0.596	0.365	0.35	0.378	0.333	–	0.96	0.871	0.648	–	–	–	–	0.478	0.615
NCI-H1395	0.732	–	0.772	0.743	1.26	0.981	0.695	0.748	0.729	0.8	0.634	–	–	–	1.35	1.08	1.1	1.05	–	–
NCI-H1563	–	–	–	–	0.903	0.894	0.728	–	–	–	–	–	0.905	0.976	–	–	–	–	1	0.508
NCI-H1650	0.443	0.61	0.49	0.439	–	–	–	0.397	0.39	0.361	0.257	0.239	0.217	0.225	1.2	1.1	1.29	1.29	–	0.212
NCI-H1792	0.507	0.492	0.489	0.456	0.704	0.657	0.664	–	–	–	–	1.02	0.957	0.958	0.671	0.51	0.585	0.544	0.622	0.92
NCI-H1793	0.531	0.535	0.464	–	–	1.01	0.511	0.467	0.374	0.242	0.182	–	–	–	0.569	0.476	0.932	0.39	0.727	–
NCI-H1944	–	0.47	0.482	0.38	0.882	1.01	0.706	0.281	0.292	0.266	0.206	–	–	–	1.06	1.06	1.18	0.872	0.909	–
NCI-H2170	0.493	0.411	0.486	0.437	0.792	0.865	0.754	0.767	0.714	0.726	0.694	–	–	–	0.615	0.57	0.64	0.502	0.843	–
NCI-H2228	–	–	–	–	0.863	0.694	0.64	0.273	0.283	0.18	0.182	1.24	0.893	1.02	0.784	0.706	0.828	0.477	0.753	0.615
NCI-H2342	0.778	0.676	0.716	0.712	–	–	–	0.568	0.488	0.377	0.366	–	–	–	–	–	–	–	–	–
SK-MES-1	0.365	0.326	0.322	0.338	0.957	0.854	0.873	0.823	0.833	0.714	0.439	–	–	–	1.17	1.26	1.22	–	0.877	–
SW 900	0.397	0.56	0.418	0.475	–	–	–	0.718	0.467	0.402	0.316	–	–	–	–	–	–	–	–	–

Source: the supplement of paper PMC10307832
